From ChEMBL document CHEMBL4138123, “Design, synthesis and biological evaluation of novel pyrazolochalcones as potential modulators of PI3K/Akt/mTOR pathway and inducers of apoptosis in breast cancer cells” (Eur J Med Chem, 2017)

How the values were obtained:
Assay type in all cases: functional
MDA-MB-231 = experiment: Cytotoxicity against human MDA-MB-231 cells assessed as cell growth at 100 uM after 48 hrs by sulforhodamine B assay relative to control; settings: MDA-MB-231, 48 h, read-out: Activity
SN12C [1] = experiment: Cytotoxicity against human SN12C cells assessed as cell growth at 100 uM after 48 hrs by sulforhodamine B assay relative to control; settings: read-out: Activity
A498 = experiment: Cytotoxicity against human A498 cells assessed as cell growth at 0.1 uM after 48 hrs by sulforhodamine B assay relative to control; settings: A498, 48 h, read-out: Activity
Hs-578T = experiment: Cytotoxicity against human Hs 578T cells assessed as cell growth at 10 uM after 48 hrs by sulforhodamine B assay relative to control; settings: read-out: Activity
Malme-3M = experiment: Cytotoxicity against human MALME-3M cells assessed as cell growth at 0.1 uM after 48 hrs by sulforhodamine B assay relative to control; settings: read-out: Activity
SN12C [2] = experiment: Cytotoxicity against human SN12C cells assessed as growth inhibition after 48 hrs by sulforhodamine B assay
OVCAR-3 [3] = experiment: Cytotoxicity against human OVCAR3 cells assessed as cell growth at 0.1 uM after 48 hrs by sulforhodamine B assay relative to control; settings: OVCAR-3, 48 h, read-out: Activity
NCI-H522 = experiment: Cytotoxicity against human NCI-H522 cells assessed as cell growth at 0.01 uM after 48 hrs by sulforhodamine B assay relative to control; settings: NCI-H522, 48 h, read-out: Activity
A549 [4] = experiment: Cytotoxicity against human A549/ATCC cells assessed as cell growth at 0.01 uM after 48 hrs by sulforhodamine B assay relative to control; settings: A549, 48 h, read-out: Activity
UACC-62 = experiment: Cytotoxicity against human UACC62 cells assessed as growth inhibition after 48 hrs by sulforhodamine B assay; settings: UACC-62, 48 h
HCT-116 = experiment: Cytotoxicity against human HCT116 cells assessed as cell growth at 100 uM after 48 hrs by sulforhodamine B assay relative to control; settings: HCT-116, 48 h, read-out: Activity
HOP-62 = experiment: Cytotoxicity against human HOP62 cells assessed as cell growth at 10 uM after 48 hrs by sulforhodamine B assay relative to control; settings: HOP-62, 48 h, read-out: Activity
SNB-19 [5] = experiment: Cytotoxicity against human SNB19 cells assessed as cell growth at 0.01 uM after 48 hrs by sulforhodamine B assay relative to control; settings: SNB-19, 48 h, read-out: Activity
HCC 2998 = experiment: Cytotoxicity against human HCC2998 cells assessed as cell growth at 0.01 uM after 48 hrs by sulforhodamine B assay relative to control; settings: HCC 2998, 48 h, read-out: Activity
HCT-15 = experiment: Cytotoxicity against human HCT15 cells assessed as cell growth at 0.01 uM after 48 hrs by sulforhodamine B assay relative to control; settings: HCT-15, 48 h, read-out: Activity
SK-OV-3 = experiment: Cytotoxicity against human SKOV3 cells assessed as cell growth at 10 uM after 48 hrs by sulforhodamine B assay relative to control; settings: SK-OV-3, 48 h, read-out: Activity
ACHN = experiment: Cytotoxicity against human ACHN cells assessed as cell growth at 1 uM after 48 hrs by sulforhodamine B assay relative to control; settings: read-out: Activity
T47D = experiment: Cytotoxicity against human T47D cells assessed as cell growth at 1 uM after 48 hrs by sulforhodamine B assay relative to control; settings: read-out: Activity
U-251 [6] = experiment: Cytotoxicity against human U251 cells assessed as cell growth at 10 uM after 48 hrs by sulforhodamine B assay relative to control; settings: U-251, 48 h, read-out: Activity
IGROV-1 = experiment: Cytotoxicity against human IGROV1 cells assessed as cell growth at 0.01 uM after 48 hrs by sulforhodamine B assay relative to control; settings: IGROV-1, 48 h, read-out: Activity
SW-620 = experiment: Cytotoxicity against human SW620 cells assessed as growth inhibition after 48 hrs by sulforhodamine B assay; settings: SW-620, 48 h
OVCAR-3 [7] = experiment: Cytotoxicity against human OVCAR3 cells assessed as cell growth at 1 uM after 48 hrs by sulforhodamine B assay relative to control; settings: OVCAR-3, 48 h, read-out: Activity
SNB-19 [8] = experiment: Cytotoxicity against human SNB19 cells assessed as cell growth at 1 uM after 48 hrs by sulforhodamine B assay relative to control; settings: SNB-19, 48 h, read-out: Activity
RPMI-8226 = experiment: Cytotoxicity against human RPMI8226 cells assessed as growth inhibition after 48 hrs by sulforhodamine B assay; settings: RPMI-8226, 48 h
COLO 205 = experiment: Cytotoxicity against human COLO205 cells assessed as cell growth at 0.01 uM after 48 hrs by sulforhodamine B assay relative to control; settings: COLO 205, 48 h, read-out: Activity
PC-3 = experiment: Cytotoxicity against human PC3 cells assessed as growth inhibition after 48 hrs by sulforhodamine B assay; settings: PC-3, 48 h
OVCAR-4 = experiment: Cytotoxicity against human OVCAR4 cells assessed as cell growth at 10 uM after 48 hrs by sulforhodamine B assay relative to control; settings: OVCAR-4, 48 h, read-out: Activity
A549 [9] = experiment: Cytotoxicity against human A549/ATCC cells assessed as cell growth at 0.1 uM after 48 hrs by sulforhodamine B assay relative to control; settings: A549, 48 h, read-out: Activity
NCI-H23 = experiment: Cytotoxicity against human NCI-H23 cells assessed as growth inhibition after 48 hrs by sulforhodamine B assay; settings: NCI-H23, 48 h; for CC50: read-out: LC50 (the source's name)
K562 = experiment: Cytotoxicity against human K562 cells assessed as cell growth at 0.01 uM after 48 hrs by sulforhodamine B assay relative to control; settings: K562, 48 h, read-out: Activity
SR = experiment: Cytotoxicity against human SR cells assessed as cell growth at 100 uM after 48 hrs by sulforhodamine B assay relative to control; settings: read-out: Activity
U-251 [10] = experiment: Cytotoxicity against human U251 cells assessed as cell growth at 1 uM after 48 hrs by sulforhodamine B assay relative to control; settings: U-251, 48 h, read-out: Activity
NCI-H322M = experiment: Cytotoxicity against human NCI-H322M cells assessed as growth inhibition after 48 hrs by sulforhodamine B assay; settings: for CC50: read-out: LC50 (the source's name)
MCF7 = experiment: Cytotoxicity against human MCF7 cells assessed as cell growth at 100 uM after 48 hrs by sulforhodamine B assay relative to control; settings: MCF7, 48 h, read-out: Activity
NCI/ADR-RES = experiment: Cytotoxicity against human NCI/ADR-RES cells assessed as growth inhibition after 48 hrs by sulforhodamine B assay

COc1cc(C(=O)/C=C/c2cc(-c3cc(OC)c(OC)c(OC)c3)n[nH]2)cc(OC)c1OC
growth at 100 µM (MDA-MB-231): -96%
growth at 100 µM (SN12C [1]): -97%
growth at 0.1 µM (A498): 90%
growth at 10 µM (Hs-578T): 10%
growth at 0.1 µM (Malme-3M): 101%
LC50 (SN12C [2]): 5.99 µM
TGI (SN12C [2]): 2.97 µM
growth at 0.1 µM (OVCAR-3 [3]): 105%
growth at 0.01 µM (NCI-H522): 101%
growth at 0.01 µM (A549 [4]): 97%
LC50 (UACC-62): 7.6 µM
TGI (UACC-62): 3.68 µM
growth at 100 µM (HCT-116): -88%
growth at 10 µM (HOP-62): -91%
growth at 0.01 µM (SNB-19 [5]): 92%
growth at 0.01 µM (HCC 2998): 102%
growth at 0.01 µM (HCT-15): 95%
growth at 10 µM (SK-OV-3): 5%
growth at 1 µM (ACHN): 89%
growth at 1 µM (T47D): 57%
growth at 10 µM (U-251 [6]): -94%
growth at 0.01 µM (IGROV-1): 104%
LC50 (lethal concentration, 50% net cell kill) (SW-620): 5.97 µM
TGI (SW-620): 3.08 µM
growth at 1 µM (OVCAR-3 [7]): 97%
growth at 1 µM (SNB-19 [8]): 82%
LC50 (RPMI-8226): > 100 µM
TGI (RPMI-8226): 2.06 µM
growth at 0.01 µM (COLO 205): 103%
LC50 (PC-3): 7.36 µM
TGI (PC-3): 3.29 µM
growth at 10 µM (OVCAR-4): -100%
growth at 0.1 µM (A549 [9]): 94%
TGI (NCI-H23): 9.9 µM
CC50 (NCI-H23): 64.3 µM
growth at 0.01 µM (K562): 99%
growth at 100 µM (SR): 7%
growth at 1 µM (U-251 [10]): 83%
TGI (NCI-H322M): 4.85 µM
CC50 (NCI-H322M): 14.4 µM
growth at 100 µM (MCF7): -72%
LC50 (NCI/ADR-RES): > 100 µM
TGI (NCI/ADR-RES): 21.4 µM

COc1cc(-c2cc(/C=C/C(=O)c3ccc(F)c(F)c3)[nH]n2)cc(OC)c1OC
growth at 100 µM (MDA-MB-231): -49%
growth at 100 µM (SN12C [1]): -22%
growth at 0.1 µM (A498): 96%
growth at 10 µM (Hs-578T): 21%
growth at 0.1 µM (Malme-3M): 90%
LC50 (SN12C [2]): > 100 µM
TGI (SN12C [2]): 25.5 µM
growth at 0.1 µM (OVCAR-3 [3]): 104%
growth at 0.01 µM (NCI-H522): 96%
growth at 0.01 µM (A549 [4]): 101%
LC50 (UACC-62): 35.3 µM
TGI (UACC-62): 7.44 µM
growth at 100 µM (HCT-116): -52%
growth at 10 µM (HOP-62): 25%
growth at 0.01 µM (SNB-19 [5]): 89%
growth at 0.01 µM (HCC 2998): 83%
growth at 0.01 µM (HCT-15): 97%
growth at 10 µM (SK-OV-3): 17%
growth at 1 µM (ACHN): 100%
growth at 1 µM (T47D): 76%
growth at 10 µM (U-251 [6]): 7%
growth at 0.01 µM (IGROV-1): 97%
LC50 (lethal concentration, 50% net cell kill) (SW-620): > 100 µM
TGI (SW-620): > 100 µM
growth at 1 µM (OVCAR-3 [7]): 95%
growth at 1 µM (SNB-19 [8]): 82%
LC50 (RPMI-8226): > 100 µM
TGI (RPMI-8226): 6.01 µM
growth at 0.01 µM (COLO 205): 101%
LC50 (PC-3): > 100 µM
TGI (PC-3): 5.72 µM
growth at 10 µM (OVCAR-4): 17%
growth at 0.1 µM (A549 [9]): 98%
TGI (NCI-H23): 8.5 µM
CC50 (NCI-H23): > 100 µM
growth at 0.01 µM (K562): 100%
growth at 100 µM (SR): 8%
growth at 1 µM (U-251 [10]): 87%
TGI (NCI-H322M): > 100 µM
CC50 (NCI-H322M): > 100 µM
growth at 100 µM (MCF7): -20%
LC50 (NCI/ADR-RES): > 100 µM
TGI (NCI/ADR-RES): 50.5 µM
